{"source": "patent US11020405B2", "about": "“Method for prevention or treatment of diabetic complications” (KANGWON NATIONAL UNIVERSITY UNIVERSITY-INDUSTRY COOPERATION …, priority 2017, dated 2021)", "key": {"VE-cadherin": {"tested_on": "VE-cadherin", "assay": "Analysis of adherens junction (VE-cadherin staining)", "format": "cell-based, human", "conditions": "HRECs, 10 ng/mL VEGF 90 min with 20 μM midazolam, 5 μM BAPTA-AM, 1 mM NAC, 0.5 μM Trolox, 50 μM cystamine or 20 μM MDC (FIGS. 5, 6)", "description": "Purchased from Applied Cell Biology Research Institute (Cell Systems, Kirkland, Wash.), human retinal endothelial cells (HRECs) were cultured in an M19 medium, containing 20% FBS, 3 ng/mL bFGF, 5 U/mL heparin, 100 U/mL penicillin and […], in a 2% gelatin-coated plate.\nBefore the following Test Examples 2 to 7, the HRECs were cultured for 6 hr in a medium containing 1% FBS and an antibiotic agent, thus preparing HRECs of Test Example 1.\nThe HRECs of Test Example 1 were subjected to the respective treatments below and cultured for 30 min. Here, treatment with 10 ng/mL VEGF was performed for 90 min. Thereafter, the HRECs were treated with 1 mM 5-(biotinamido)pentylamine, incubated for 1 hr, fixed with 3.7% formaldehyde, treated with 0.2% triton X-100, treated with a blocking solution containing 138 mM NaCl, 0.1% Tween 20 and 2% BSA dissolved in a 20 mM Tris (pH 7.6) buffer, incubated for 30 min, incubated with a monoclonal VE-cadherin antibody (1:200; Santa Cruz Biotechnology) for 12 hr or more (overnight), incubated with a FITC-conjugated goat anti-mouse antibody (1:200; Sigma-Aldrich), and then measured using confocal microscopy. Some (the following i), iii), iv), vi), ix)) of the results are shown in FIG. 5 and the VE-cadherin concentrations in the portions represented by the dotted lines in FIG. 5 are shown in FIG. 6. With reference to FIG. 6, 10 randomly selected cells were measured to determine the fluorescence intensity of single cells and thus quantify VE-cadherin.\nVE-cadherin, which is a protein that mediates adherens junction, was analyzed to evaluate adherens junction."}, "retinas of diabetic mice": {"tested_on": "retinas of diabetic mice", "assay": "Analysis of ROS concentration in retinas of diabetic mouse model (DHE)", "format": "in vivo, C57BL/6 mice", "conditions": "intravitreal 2 μL of 2 mM midazolam, 2 μM Trolox or 500 mM NAC (FIGS. 12, 13)", "description": "6-week-old male C57BL/6 mice (DBL, EumSeong, Korea) were administered with streptozotocin (Sigma-Aldrich) dissolved in a 100 mM citrate buffer (pH 4.5) through intraperitoneal injection in an amount of 150 mg each per kg of mouse weight to give diabetic mouse models. In the diabetic mouse models, the blood glucose level was 19 mM or more when not fasting, and polyuria and diabetes, considered signs of diabetes, were observed. […]\nNormal mice (Normal), midazolam-administered normal mice (Midazolam), diabetic mice (Diabetic), midazolam-administered diabetic mice (Diabetic+Midazolam), Trolox-administered diabetic mice (Diabetic+Trolox) and NAC-administered diabetic mice (Diabetic+NAC) were subjected to cervical dislocation and the eyeballs were extracted therefrom and rapidly frozen with an OCT compound (Sakura Finetek, Torrance, Calif., USA). Using a microtome-cryostat (Leica Biosystems, Wetzlar, Germany), 10 μm-thick non-fixed cryosections were prepared, treated with a solution of 5 μM dihydroethidium (DHE, Invitrogen-Molecular Probes) in PBS, stained for 30 min, and measured using confocal microscopy. The results of ROS concentrations quantitatively analyzed using the fluorescence intensity of the cryosections are shown in FIGS. 12 and 13."}, "[1]": {"tested_on": "aortic endothelium of diabetic mice", "assay": "Hyperglycemia-induced endothelial apoptosis in aortic endothelium of diabetic mice (TUNEL)", "format": "in vivo, C57BL/6 mice", "conditions": "midazolam 10 mg/kg intraperitoneal daily for 14 days (FIG. 19)", "description": "FIGS. 19A and 19B show the preventive effects of midazolam against hyperglycemia-induced endothelial apoptosis in the aortic endothelium of diabetic mice. Six-week-old male C57BL/6 mice were administered with streptozotocin (150 mg/kg body weight) to give diabetic mouse models. One week after streptozotocin injection, diabetic mice were administered midazolam (10 mg/kg) by intraperitoneal injection daily for 14 days. The body weight of mice were measure in normal (20.7±0.1 g), diabetic (17.1±0.1 g), and midazolam supplemented diabetic mice (17.0±0.3 g). Blood glucose levels were also monitored in normal (124.0±12.0 mg/dL), diabetic (509.0±1.0 mg/dL), and midazolam supplemented diabetic mice (515.7±3.4 mg/dL). Aorta of mice were dissected and cut longitudinally to expose the endothelium. And then aortic segments were fixed for 15 min with 1% (w/v) paraformaldehyde in PBS, followed by treatment for 30 min with 70% (v/v) ethanol on ice. Apoptotic cells were stained by terminal deoxynucleotidyl transferase dUTP nick end labeling (TUNEL) with nuclear counterstaining with DAPI and visualized by confocal microscopy in the aortic endothelium. […] The results of endothelial apoptosis quantitatively analyzed by measurement of TUNEL staining in the aorta are shown in additional FIG. 19B (n=4 for normal and diabetic, n=6 for diabetic+Midazolam)."}, "[2]": {"tested_on": "human retinal endothelial cells (HRECs)", "assay": "Identification of receptor of midazolam through ROS concentration analysis", "format": "cell-based", "description": "With reference to FIG. 10A, the HRECs of Test Example 1 were subjected to the respective treatments below, cultured for 10 min, treated with 10 μM H2DCFDA, stained for 10 min in a phenol-red-free low-serum medium, and measured using confocal microscopy to thus determine the fluorescence intensity of single cells.\nAs will be described below, flumazenil was used as a GABAA receptor antagonist and PK11195 was used as a TSOP receptor antagonist.\nWith reference to FIG. 10B, the HRECs of Test Example 1 were treated with 0 μM, 0.01 μM, 0.1 μM, 1 μM, 10 μM, 20 μM, and 50 μM flumazenil and 0 μM, 0.01 μM, 0.1 μM, 1 μM, 3 μM, 10 μM, and 30 μM PK11195, cultured for 1 hr, treated with 20 μM midazolam, cultured for 30 min, treated with 10 ng/ml VEGF, incubated for 10 min, treated with 10 μM H2DCFDA, stained for 10 min in a phenol-red-free low-serum medium, and then measured using confocal microscopy to thus determine the fluorescence intensity of single cells."}, "VEGF": {"tested_on": "VEGF", "assay": "VEGF-induced vascular leakage in mouse ear (evans blue dye)", "format": "in vivo, C57BL/6 mice", "conditions": "24 hr before evans blue dye, 30 ng VEGF intradermally (FIG. 23)", "description": "Six-week-old male C57BL/6 mice were administered 5 or 10 mg/kg midazolam by intraperitoneal injection. After 24 hr, mice were intravenously injected with 45 mg/kg evans blue dye. After 30 min circulation, 10 μl VEGF solution (30 ng) was injected intradermally into the dorsal part of ears. Representative images of vascular leakage in ears are shown in additional FIG. 23 (n=2/group)."}}}
{"smiles": "Cc1ncc2n1-c1ccc(Cl)cc1C(c1ccccc1F)=NC2", "note": "[midazolam]", "values": [{"measurement": "VE-cadherin concentration / adherens junction disruption due to VEGF", "setting": "VE-cadherin", "value": "exhibited the effect of preventing the adherens junction disruption due to VEGF"}, {"measurement": "ROS concentration in retina compared to normal mice", "setting": "retinas of diabetic mice", "value": "an increase in ROS concentration was suppressed"}, {"measurement": "hyperglycemia-induced endothelial apoptosis in aorta (TUNEL staining)", "setting": "[1]", "value": "inhibited the hyperglycemia-induced apoptosis of diabetic aortas"}, {"measurement": "ROS concentration (VEGF-induced) compared to control", "setting": "[2]; 20 μM midazolam 10 min then 10 ng/ml VEGF, no washing (FIG. 10A)", "value": "no significant ROS concentration increase was observed"}, {"measurement": "ROS concentration (VEGF-induced, after washing)", "setting": "[2]; 20 μM midazolam 30 min, washing with serum-free medium, then 10 ng/ml VEGF (FIG. 10A)", "value": "ROS concentration was increased"}, {"measurement": "VEGF-induced vascular leakage in mouse ear", "setting": "VEGF; 5 mg/kg midazolam intraperitoneal", "value": "not at 5 mg/kg"}, {"measurement": "VEGF-induced vascular leakage in mouse ear", "setting": "VEGF; 10 mg/kg midazolam intraperitoneal", "value": "suppressed"}]}
